Test results: ChEMBL document CHEMBL1201862, “PubChem BioAssay data set” (2004)
The source made the active and inactive calls.

What was measured:
[1] = target: Cytochrome P450 2D6 (Homo sapiens, UniProt P10635);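 further: CYP2D6 member of a cytochrome P450 panel assay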
[2] = target: T1, Cytochrome P450 1A2 (Homo sapiens, UniProt P05177);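 further: PubChem cytochrome P450 panel assay, CYP1A2 panel member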
T1 sequence (P05177 whole entry): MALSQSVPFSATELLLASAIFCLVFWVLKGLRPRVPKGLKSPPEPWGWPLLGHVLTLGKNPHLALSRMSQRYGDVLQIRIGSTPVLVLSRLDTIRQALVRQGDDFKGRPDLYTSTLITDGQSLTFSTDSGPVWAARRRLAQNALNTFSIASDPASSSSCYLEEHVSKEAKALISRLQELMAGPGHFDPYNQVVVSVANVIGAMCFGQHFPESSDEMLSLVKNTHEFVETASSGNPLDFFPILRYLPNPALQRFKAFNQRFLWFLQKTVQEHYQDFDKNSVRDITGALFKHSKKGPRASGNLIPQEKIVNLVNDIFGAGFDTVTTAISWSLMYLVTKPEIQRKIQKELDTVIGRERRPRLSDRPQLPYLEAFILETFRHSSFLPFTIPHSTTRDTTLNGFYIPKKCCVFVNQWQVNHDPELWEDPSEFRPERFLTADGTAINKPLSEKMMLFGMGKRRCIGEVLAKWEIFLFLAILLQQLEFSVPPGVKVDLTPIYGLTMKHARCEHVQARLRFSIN

[3] = tested on: Streptococcus; assay: Group A Streptococcus viability loss, dose response, counter-screen for streptokinase expression inhibitor project, luminescence, BacTiterGlo (AID 1915); format: functional, organism-based;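 further: potency for reduction of bacterial viability or growth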
[4] = tested on: Streptococcus sp. 'group A'; assay: growth inhibition of control SK(-) GAS strain, dose response, counter-screen for streptokinase expression inhibitor project, luminescence, kanamycin, BacTiterGlo, confirmation (AID 1900); format: functional, organism-based
[5] = target: T2, Streptokinase A (Streptococcus pyogenes serotype M1, UniProt P10520); assay: S. pyogenes streptokinase expression inhibitors, potency, dose response, plasminogen activation absorbance, OD405 (AID 1914); format: functional, Streptococcus pyogenes M1 GAS;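 further: secreted streptokinase activity via plasminogen activation per viability signal from cell pellet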
T2 sequence (P10520 whole entry): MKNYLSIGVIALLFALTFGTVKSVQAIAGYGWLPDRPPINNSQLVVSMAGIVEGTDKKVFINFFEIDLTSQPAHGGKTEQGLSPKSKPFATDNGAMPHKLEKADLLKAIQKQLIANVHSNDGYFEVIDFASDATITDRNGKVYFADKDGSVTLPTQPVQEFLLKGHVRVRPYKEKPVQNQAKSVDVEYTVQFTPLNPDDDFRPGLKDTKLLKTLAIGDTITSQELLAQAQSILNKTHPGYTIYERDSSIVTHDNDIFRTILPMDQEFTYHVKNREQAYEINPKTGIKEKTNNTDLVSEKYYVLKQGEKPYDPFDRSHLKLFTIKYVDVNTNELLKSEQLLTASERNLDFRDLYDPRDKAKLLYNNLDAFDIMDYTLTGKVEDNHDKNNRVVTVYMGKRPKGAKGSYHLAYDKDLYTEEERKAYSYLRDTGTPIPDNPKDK

[6] = tested on: H4; assay: Luminescence Cell-Based Dose Response HTS to Identify Activators of 5'UTR Stem-Loop Driven Prion Protein mRNA Translation in H4 Neuroglioblastoma Cells. [Related pubchem assays: 1829 (Project Summary), 1814 (Primary HTS)]; format: functional; settings: Homo sapiens
[7] = target: T3, Ubiquitin-conjugating enzyme E2 N (Homo sapiens, UniProt P61088); format: functional;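 further: Dose-response confirmation in a TR-FRET assay detecting UBC13-driven polyubiquitin chain formation, inhibition measured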
T3 sequence (P61088 whole entry): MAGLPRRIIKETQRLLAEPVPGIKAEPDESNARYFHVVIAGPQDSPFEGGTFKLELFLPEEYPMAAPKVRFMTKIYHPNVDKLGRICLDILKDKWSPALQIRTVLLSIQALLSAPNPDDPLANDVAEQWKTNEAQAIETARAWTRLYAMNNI

[8] = Luminescence Cell-Based Dose Confirmation HTS to Identify Activators of 5'UTR Stem-Loop Driven Alpha-Synuclein mRNA Translation in H4 Neuroglioblastoma Cells. [Related pubchem assays: 1829 (Project Summary), 1814 (Primary HTS)]; format: functional
[9] = Luminescence Cell-Based Dose Response HTS to Identify Activators of Luciferase Translation or Activity in H4 […] Cells. [Related pubchem assays: 1829 (Project Summary), 1814 (Primary HTS)]; format: functional
[10] = HEp-2 cell cytotoxicity, dose response, cytotoxicity control for RSV inhibitor project, HTS (AID 2410); format: functional; settings: human respiratory syncytial virus
[11] = tested on: H9c2; assay: cells; format: functional, cell-based; settings: Rattus norvegicus, H9c2, Myocardium;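 further: confirmatory concentration-response retest of ultra-high-throughput screening hits for modulation of myocardial damage; cell death induced by hydrogen peroxide oxidative stress; compound pretreatment for 60 min then peroxide exposure for 2 h; potency is for protecting the cells against peroxide damage rather than for killing them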
[12] = Luminescence Cell-Based Dose Retest to Confirm Inhibitors of Cancer Stem Cells. [Related pubchem assays (depositor defined):AID2717, AID2721]; format: functional; settings: Homo sapiens
[13] = target: T4, Corticotropin-releasing factor receptor 2/Corticotropin-releasing factor-binding protein (Homo sapiens, UniProt P24387+Q13324); assay: activators of CRF receptor 2 with binding protein – uHTS hits, confirmation (AID 602473); format: functional; settings: read-out: EC50_Mean
T4 sequence (Q13324 whole entry): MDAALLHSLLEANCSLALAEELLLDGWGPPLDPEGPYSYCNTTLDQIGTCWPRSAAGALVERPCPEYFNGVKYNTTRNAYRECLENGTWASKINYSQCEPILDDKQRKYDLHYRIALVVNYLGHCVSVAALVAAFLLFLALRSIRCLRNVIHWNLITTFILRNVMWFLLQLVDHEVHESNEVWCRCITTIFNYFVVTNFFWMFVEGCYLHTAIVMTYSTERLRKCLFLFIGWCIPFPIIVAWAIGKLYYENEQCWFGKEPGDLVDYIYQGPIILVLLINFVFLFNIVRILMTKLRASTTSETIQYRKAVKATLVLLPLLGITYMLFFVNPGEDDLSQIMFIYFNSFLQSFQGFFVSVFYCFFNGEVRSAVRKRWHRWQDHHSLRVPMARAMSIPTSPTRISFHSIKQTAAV
T4 sequence (P24387 whole entry): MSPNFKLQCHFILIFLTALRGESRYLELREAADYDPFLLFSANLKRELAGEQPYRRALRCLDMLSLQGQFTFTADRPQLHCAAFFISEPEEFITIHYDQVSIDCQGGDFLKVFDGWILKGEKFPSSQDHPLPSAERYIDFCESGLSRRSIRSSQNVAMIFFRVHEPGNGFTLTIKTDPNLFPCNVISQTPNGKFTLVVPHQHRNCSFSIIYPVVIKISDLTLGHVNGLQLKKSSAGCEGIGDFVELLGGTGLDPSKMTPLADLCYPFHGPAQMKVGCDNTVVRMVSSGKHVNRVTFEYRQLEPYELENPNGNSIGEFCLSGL

[14] = target: Cytochrome P450 2C9 (Homo sapiens, UniProt P11712)
Sequence of Cytochrome P450 2C9 (P11712 whole entry): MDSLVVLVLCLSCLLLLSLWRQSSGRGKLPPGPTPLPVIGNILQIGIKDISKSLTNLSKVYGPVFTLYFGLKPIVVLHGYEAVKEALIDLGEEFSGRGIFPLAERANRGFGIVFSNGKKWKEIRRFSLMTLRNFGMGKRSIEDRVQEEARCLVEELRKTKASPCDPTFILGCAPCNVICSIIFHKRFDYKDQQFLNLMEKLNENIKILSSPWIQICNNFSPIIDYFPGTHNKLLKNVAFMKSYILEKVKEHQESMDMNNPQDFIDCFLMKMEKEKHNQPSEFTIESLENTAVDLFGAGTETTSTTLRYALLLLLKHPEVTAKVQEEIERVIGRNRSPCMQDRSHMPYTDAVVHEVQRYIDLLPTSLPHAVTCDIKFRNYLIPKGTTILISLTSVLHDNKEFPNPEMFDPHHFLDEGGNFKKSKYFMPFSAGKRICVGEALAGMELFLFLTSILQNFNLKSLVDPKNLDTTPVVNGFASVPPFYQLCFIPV

Sequence of Cytochrome P450 2D6 (P10635 whole entry): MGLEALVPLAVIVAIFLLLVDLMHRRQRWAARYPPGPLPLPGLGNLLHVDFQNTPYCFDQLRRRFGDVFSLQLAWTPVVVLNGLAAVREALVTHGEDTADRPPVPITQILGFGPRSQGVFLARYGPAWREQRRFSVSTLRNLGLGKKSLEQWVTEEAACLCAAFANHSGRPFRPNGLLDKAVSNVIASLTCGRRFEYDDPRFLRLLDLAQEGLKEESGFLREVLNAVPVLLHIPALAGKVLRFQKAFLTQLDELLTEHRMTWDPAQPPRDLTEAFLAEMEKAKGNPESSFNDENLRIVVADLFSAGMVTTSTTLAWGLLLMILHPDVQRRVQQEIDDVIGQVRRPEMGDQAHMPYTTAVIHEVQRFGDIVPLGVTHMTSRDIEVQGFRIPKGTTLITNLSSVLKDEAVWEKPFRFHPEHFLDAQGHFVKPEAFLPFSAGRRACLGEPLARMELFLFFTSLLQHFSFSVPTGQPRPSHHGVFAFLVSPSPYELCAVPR

Compound: FC(F)(F)c1ccccc1-c1cncnc1Nc1ccccc1
- AC50 [1]: 39.8 µM (inconclusive)
- AC50 [2]: 25.1 µM (inconclusive)

Compound: COc1cccc(CC(=O)OCC(=O)Nc2nnc(-c3ccccc3)o2)c1
- EC50 [3]: > 150 µM (not active)
- EC50 [4]: 7.82 µM (active)
- EC50 [5]: > 150 µM (not active)

Compound: N#Cc1nc(-c2cccc3ccccc23)oc1NCCN1CCCCC1
- EC50 [6]: > 120 µM (not active)
- IC50 [7]: > 20 µM (inactive)
- EC50 [8]: 12.4 µM (active)
- EC50 [9]: 12 µM (active)

Compound: Cc1ccc(-c2cc3nc(-c4ccccc4)cc(N)n3n2)cc1
- EC50 [6]: > 120 µM (not active)
- EC50 [8]: 0.163 µM (active)
- EC50 [9]: 0.812 µM (active)

Compound: N#Cc1cn(-c2ccccc2)nc1C(=O)c1ccccc1
- EC50 [6]: > 120 µM (not active)
- EC50 [8]: > 120 µM (not active)
- EC50 [9]: > 120 µM (not active)

Compound: CC(C)c1ccc(NC(=O)/C(C#N)=C/c2ccncc2)cc1
- CC50 [10]: 14.5 µM (active)

Compound: O=[N+]([O-])c1ccc(S(=O)(=O)Cc2ccccc2)c([N+](=O)[O-])c1
- AC50 [1]: 2.51 µM (inconclusive)
- AC50 [2]: 5.01 µM (inconclusive)

Compound: CC1Nc2ncnc(N3CCN(c4ccccc4)CC3)c2N(Cc2ccc(Cl)cc2)C1=O (stereo not given)
- CC50 [10]: 26.4 µM (active)
- IC50 [11]: > 79 µM (inactive)

Compound: C[C@]12CCC(O)CC1CCC1C2CC[C@]2(C)C(c3cc(C(F)(F)F)[nH]n3)CCC12 (stereo not given in full)
- EC50 [3]: 3.87 µM (active)
- EC50 [4]: 1.17 µM (active)
- AC50 [12]: 1.67 µM (active)
- CC50 [10]: 8.08 µM (active)

Compound: C[C@]12CCC(O)CC1CCC1C2CC[C@]2(C)C(c3cc(C(F)(F)F)n[nH]3)CCC12 (stereo not given in full)
- EC50 [13]: 11.1 µM (active)
- EC50 [5]: 4.19 µM (active)

Compound: CC(=O)N(C)c1ccc(NC(S)=Nc2cccc3ccccc23)cc1
- EC50 [6]: 30.7 µM (active)
- EC50 [8]: 15.8 µM (active)
- EC50 [9]: 29.5 µM (active)

Compound: Cc1nc(-c2ccc(Cl)cc2)sc1C1(C)CC(c2ccccc2)=NO1 (stereo not given)
- EC50 [6]: 31.3 µM (active)
- EC50 [8]: 7.51 µM (active)
- EC50 [9]: 9.8 µM (active)

Compound: O=C(CCNS(=O)(=O)c1ccc2c(c1)CCC(=O)N2)NCc1ccc2c(c1)OCO2
- AC50 [14]: 39.8 µM (inconclusive)
- AC50 [1]: 22.4 µM (inconclusive)

Compound: COc1cc(C(=O)N/N=C/c2ccc(OC(=O)c3ccccc3Cl)c(OC)c2)ccc1O
- EC50 [3]: 8.59 µM (active)
- EC50 [4]: 6.17 µM (active)
- EC50 [5]: > 150 µM (not active)

Compound: COc1ccc(CNc2ncnc3ccc(-c4ccc(C(=O)N(C)C)cc4)cc23)c(OC)c1
- AC50 [1]: 20 µM (inconclusive)
- AC50 [2]: 39.8 µM (inconclusive)

Compound: CCCCCCC(C)(C)c1ccc([C@@H]2C[C@H](O)CC[C@H]2CCCO)c(O)c1 [CP-55940]
- AC50 [12]: 3.58 µM (active)
